{"source": "patent US6649626B1", "about": "“N-substituted 1-(lactone) isoquinolones for treating nervous disorders” (Centre National de la Recherche Scientifique (CNRS), priority 1999, dated 2003)", "key": {"[1]": {"biological_target": "T1, benzodiazepine-binding site of the GABA-A receptor (Rattus norvegicus, UniProt P18508+P62813)", "T1 construct": "IC50 Flu / BZ receptor; other: cerebellum (ce); other: cerebellum (ce; BZ1 subtype); other: 10 μM; cerebellum; other: 100 μM; other: 0.5 μM", "T1 sequence (P62813 28-455)": "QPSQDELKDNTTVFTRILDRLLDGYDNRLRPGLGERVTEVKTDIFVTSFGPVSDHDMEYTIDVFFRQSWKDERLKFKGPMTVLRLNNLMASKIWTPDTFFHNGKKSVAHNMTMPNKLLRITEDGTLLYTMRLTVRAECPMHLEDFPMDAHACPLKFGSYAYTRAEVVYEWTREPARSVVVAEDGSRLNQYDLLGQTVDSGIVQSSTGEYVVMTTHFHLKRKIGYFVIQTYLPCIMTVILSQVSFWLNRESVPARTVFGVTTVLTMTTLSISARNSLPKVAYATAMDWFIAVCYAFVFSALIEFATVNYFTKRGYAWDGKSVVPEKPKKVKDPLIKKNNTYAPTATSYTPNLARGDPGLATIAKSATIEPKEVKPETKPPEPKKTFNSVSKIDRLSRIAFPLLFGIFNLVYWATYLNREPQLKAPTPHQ", "T1 sequence (P18508 39-466)": "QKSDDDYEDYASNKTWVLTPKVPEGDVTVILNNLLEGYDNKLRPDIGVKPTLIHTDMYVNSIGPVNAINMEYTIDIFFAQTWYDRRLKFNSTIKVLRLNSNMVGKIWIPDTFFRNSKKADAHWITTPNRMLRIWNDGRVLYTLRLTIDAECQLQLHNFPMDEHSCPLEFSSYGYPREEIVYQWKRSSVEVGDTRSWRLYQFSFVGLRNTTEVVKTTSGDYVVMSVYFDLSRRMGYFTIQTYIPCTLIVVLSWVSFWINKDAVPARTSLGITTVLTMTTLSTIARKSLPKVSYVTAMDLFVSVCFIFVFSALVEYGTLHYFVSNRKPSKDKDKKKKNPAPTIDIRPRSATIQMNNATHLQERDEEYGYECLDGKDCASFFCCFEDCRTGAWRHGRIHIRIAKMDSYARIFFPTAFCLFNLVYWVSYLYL", "T1 sequence (P63138 26-474 partner)": "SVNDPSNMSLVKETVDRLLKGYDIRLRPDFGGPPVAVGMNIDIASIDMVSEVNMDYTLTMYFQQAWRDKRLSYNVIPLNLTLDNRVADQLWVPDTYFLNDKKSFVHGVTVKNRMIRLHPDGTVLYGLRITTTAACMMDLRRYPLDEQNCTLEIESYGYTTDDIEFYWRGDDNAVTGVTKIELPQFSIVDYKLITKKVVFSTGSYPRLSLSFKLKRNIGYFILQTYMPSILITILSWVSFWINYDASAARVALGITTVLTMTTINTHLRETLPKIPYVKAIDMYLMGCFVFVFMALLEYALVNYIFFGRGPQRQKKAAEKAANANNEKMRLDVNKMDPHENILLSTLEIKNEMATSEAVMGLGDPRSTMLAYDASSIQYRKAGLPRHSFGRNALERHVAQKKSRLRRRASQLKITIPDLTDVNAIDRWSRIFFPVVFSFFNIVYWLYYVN", "test": "Displacement of tritiated flunitrazepam from brain membranes", "conditions": "for inhibition at 100 µM: read-out: Inhibition of the tritiated ligands % Flu (100 μM)"}, "[2]": {"biological_target": "T2, α1β2γ2 subtype of the GABA receptor (Rattus norvegicus, UniProt P18508+P62813+P63138)", "T2 construct": "expressed in transfected cells; host or cells: Xenopus laevis oocytes (cRNA injection)", "T2 sequence (P62813 28-455)": "as the sequence (P62813 28-455) above", "T2 sequence (P63138 25-474 limits assumed)": "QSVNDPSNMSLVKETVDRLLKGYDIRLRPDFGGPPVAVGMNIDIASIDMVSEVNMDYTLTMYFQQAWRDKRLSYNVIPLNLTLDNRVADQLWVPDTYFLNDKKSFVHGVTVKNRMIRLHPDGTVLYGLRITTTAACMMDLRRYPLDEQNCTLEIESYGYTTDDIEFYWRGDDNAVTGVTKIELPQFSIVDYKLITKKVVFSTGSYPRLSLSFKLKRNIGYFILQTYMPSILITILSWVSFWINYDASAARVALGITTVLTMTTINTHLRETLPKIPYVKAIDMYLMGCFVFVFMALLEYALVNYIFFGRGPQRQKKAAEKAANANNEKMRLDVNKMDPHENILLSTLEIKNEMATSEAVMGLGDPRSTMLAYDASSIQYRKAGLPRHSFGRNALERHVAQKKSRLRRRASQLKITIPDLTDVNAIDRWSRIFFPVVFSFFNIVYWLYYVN", "T2 sequence (P18508 39-466)": "as the sequence (P18508 39-466) above", "test": "Electrophysiology: modulation of GABA currents in Xenopus oocytes expressing recombinant GABA-A receptors", "format": "cell-based", "conditions": "for % stimulation of the GABA currents / % stimulation of the GABA currents (100 μM): α1β2γ2 in oocytes; for % stimulation of the GABA currents (100 μM): 100 μM compound with GABA"}, "[3]": {"test_system": "GABA-binding site of the GABA-A receptor", "test": "Displacement of tritiated muscimol from brain membranes"}}, "data": [{"smiles": "COc1cc2c(cc1OC)[C@H]([C@@H]1CCC(=O)O1)NCC2", "note": "(racemic) [Compound 27b, (±)-Threo-6,7-dimethoxy-1-(2,3,4,5-tetrahydro-5-oxo-2-furyl)-1,2,3,4-tetrahydroisoquinoline]", "values": [{"measurement": "Inhibition of the tritiated ligands % Flu (100 μM)", "setting": "[1]; tissue not stated", "result": "negligible"}, {"measurement": "% stimulation of the GABA currents", "setting": "[2]; 200 μM compound", "result": 200, "unit": "μM = −6%"}]}, {"smiles": "COc1cc2c(cc1OC)[C@H]([C@@H]1C=C(C)C(=O)O1)N(C)CC2", "note": "(racemic) [Compound 30b]", "values": [{"measurement": "Inhibition of the tritiated ligands % Flu (100 μM)", "setting": "[1]; tissue not stated", "result": "negligible"}, {"measurement": "% stimulation of the GABA currents (100 μM)", "setting": "[2]", "result": "−10", "unit": "%"}]}, {"smiles": "COc1cc2c(cc1OC)[C@H]([C@@H]1C=CC(=O)O1)N(C(=O)OCc1ccccc1)CC2", "note": "(racemic) [Compound 32b, (±)-(1R,2′S)-1-(2,5-Dihydro-5-oxo-2-furyl)-2-N-benzyloxycarbonyl-6,7-dimethoxy-1,2,3,4-tetrahydroisoquinoline]", "values": [{"measurement": "Displacement of muscimol", "setting": "[3]; concentration not given", "result": "Displacement of muscimol = 0%"}]}, {"smiles": "COc1cc2c(cc1OC)C(C1C=CC(=O)O1)NCC2", "note": "(racemic) [Compound 42]", "values": [{"measurement": "inhibition at 10 µM", "setting": "[1]; 10 μM, tissue not stated, read-out: Inhibition of the tritiated ligands % Flu", "result": 0, "unit": "%"}, {"measurement": "inhibition at 100 µM", "setting": "[1]; tissue not stated", "result": 30, "unit": "%"}, {"measurement": "% stimulation of the GABA currents", "setting": "[2]; 0.1 μM compound", "result": 0, "unit": "%"}, {"measurement": "% stimulation of the GABA currents (100 μM)", "setting": "[2]", "result": "−45 ± 6", "unit": "%"}, {"measurement": "Displacement of muscimol", "setting": "[3]; 10 μM", "result": 0, "unit": "%"}, {"measurement": "Displacement of muscimol", "setting": "[3]; 100 μM", "result": 20, "unit": "%"}]}, {"smiles": "COc1cc2c(cc1OC)C(C1C=C(C)C(=O)O1)N(C(=O)OCc1ccccc1)CC2", "note": "(racemic) [Compound 46]", "values": [{"measurement": "Inhibition of the tritiated ligands % Flu (100 μM)", "setting": "[1]; tissue not stated", "result": 0, "unit": "%"}, {"measurement": "% stimulation of the GABA currents", "setting": "[2]; 0.1 μM compound", "result": 0, "unit": "%"}, {"measurement": "% stimulation of the GABA currents (100 μM)", "setting": "[2]", "result": "24 ± 5", "unit": "%"}, {"measurement": "Displacement of muscimol", "setting": "[3]; 100 μM", "result": 100, "unit": "μM = 0%"}]}, {"smiles": "COc1cc2c(cc1OC)C(C1C=C(C)C(=O)O1)N(C(=O)OCc1ccccc1)CC2", "note": "(racemic) [Compound 47]", "values": [{"measurement": "Inhibition of the tritiated ligands % Flu (100 μM)", "setting": "[1]; tissue not stated", "result": 10, "unit": "%"}, {"measurement": "% stimulation of the GABA currents", "setting": "[2]; 0.1 μM compound", "result": 0, "unit": "%"}, {"measurement": "% stimulation of the GABA currents (100 μM)", "setting": "[2]", "result": "60 ± 26", "unit": "%"}, {"measurement": "Displacement of muscimol", "setting": "[3]; 100 μM", "result": 100, "unit": "μM = 0%"}]}, {"smiles": "COc1cc2c(cc1OC)C(C1CCC(=O)O1)N(C(=O)OCc1ccccc1)CC2", "note": "(racemic) [Compound 48, (±)-(1R,2′R)-2-N-Benzyloxycarbonyl-6,7-dimethoxy-1-(2,3,4,5-tetrahydro-5-oxo-2-furyl)-1,2,3,4-tetrahydroisoquinoline]", "values": [{"measurement": "inhibition at 100 µM", "setting": "[1]; tissue not stated", "result": 35, "unit": "%"}, {"measurement": "% stimulation of the GABA currents", "setting": "[2]; 0.1 μM compound", "result": 0, "unit": "%"}, {"measurement": "% stimulation of the GABA currents (100 μM)", "setting": "[2]", "result": "+159 ± 31%"}, {"measurement": "% stimulation of the GABA currents (100 μM)", "setting": "[2]; listed as (+/−) 48", "result": "+159%"}]}, {"smiles": "O=C1C=CC(C2c3ccccc3CCN2C(=O)Cc2ccccc2)O1", "note": "(racemic) [Compound 56]", "values": [{"measurement": "Inhibition of the tritiated ligands % Flu", "setting": "[1]; 0.5 μM, cerebellum", "result": 30, "unit": "%"}, {"measurement": "Inhibition of the tritiated ligands % Flu", "setting": "[1]; 0.5 μM, cortex", "result": 20, "unit": "%"}, {"measurement": "Inhibition of the tritiated ligands % Flu", "setting": "[1]; 10 μM, cerebellum", "result": 80, "unit": "%"}, {"measurement": "Inhibition of the tritiated ligands % Flu", "setting": "[1]; 10 μM, cortex", "result": 70, "unit": "%"}, {"measurement": "Inhibition of the tritiated ligands % Flu (100 μM)", "setting": "[1]; cerebellum", "result": 85, "unit": "%"}, {"measurement": "Inhibition of the tritiated ligands % Flu (100 μM)", "setting": "[1]; cortex", "result": 90, "unit": "%"}, {"measurement": "block of the stimulation caused by 20 μM of 164B", "setting": "[2]; 100 μM", "result": "blocks the stimulation caused by 20 μM of 164B"}, {"measurement": "% stimulation of the GABA currents (100 μM)", "setting": "[2]", "result": "+10 ± 17%"}, {"measurement": "Displacement of muscimol", "setting": "[3]; 100 μM", "result": 100, "unit": "μM = 0%"}]}, {"smiles": "O=C1C=CC(C2c3ccccc3CCN2C(=O)Oc2ccccc2)O1", "note": "(racemic) [Compound 57]", "values": [{"measurement": "Inhibition of the tritiated ligands % Flu", "setting": "[1]; 0.5 μM, cerebellum", "result": 35, "unit": "%"}, {"measurement": "Inhibition of the tritiated ligands % Flu", "setting": "[1]; 0.5 μM, cortex", "result": 25, "unit": "%"}, {"measurement": "Inhibition of the tritiated ligands % Flu", "setting": "[1]; 10 μM, cerebellum", "result": 90, "unit": "%"}, {"measurement": "Inhibition of the tritiated ligands % Flu", "setting": "[1]; 10 μM, cortex", "result": 75, "unit": "%"}, {"measurement": "Inhibition of the tritiated ligands % Flu (100 μM)", "setting": "[1]; cerebellum", "result": 90, "unit": "%"}, {"measurement": "Inhibition of the tritiated ligands % Flu (100 μM)", "setting": "[1]; cortex", "result": 85, "unit": "%"}, {"measurement": "% stimulation of the GABA currents", "setting": "[2]; 0.1 μM compound", "result": 0, "unit": "%"}, {"measurement": "% stimulation of the GABA currents (100 μM)", "setting": "[2]", "result": "+175 ± 13%"}, {"measurement": "Displacement of muscimol", "setting": "[3]; 10 μM", "result": 0, "unit": "%"}, {"measurement": "Muscimol: stimulation", "setting": "[3]; 100 μM, stimulation instead of displacement", "result": "10-20%"}]}, {"smiles": "Cc1ccc(S(=O)(=O)N2CCc3ccccc3C2C2CCC(=O)N2)cc1", "note": "(racemic) [Compound 73]", "values": [{"measurement": "% stimulation of the GABA currents (100 μM)", "setting": "[2]", "result": "26 ± 8", "unit": "%"}]}, {"smiles": "Cc1ccc(S(=O)(=O)N2CCc3ccccc3C2C2CCC(=O)O2)cc1", "note": "(single isomer, unassigned) [Compound 68]", "values": [{"measurement": "% stimulation of the GABA currents (100 μM)", "setting": "[2]", "result": "+184 ± 43%"}, {"measurement": "% stimulation of the GABA currents (100 μM)", "setting": "[2]; listed as (−) 68", "result": "+184%"}]}, {"smiles": "Cc1ccc(S(=O)(=O)N2CCc3ccccc3C2C2CCC(=O)O2)cc1", "note": "(single isomer, unassigned) [Compound 69]", "values": [{"measurement": "portion of the stimulatory activity due to a binding site distinct from those for the benzodiazepines", "setting": "[2]", "result": "< 70", "unit": "%"}, {"measurement": "% stimulation of the GABA currents (100 μM)", "setting": "[2]", "result": "+859 ± 75%"}, {"measurement": "% stimulation of the GABA currents (100 μM)", "setting": "[2]; listed as (−) 69", "result": "+859%"}, {"measurement": "% of the stimulation inhibited by flumazenil", "setting": "[2]; stimulation by 20 μM compound, 1 μM flumazenil", "result": 28, "unit": "%"}]}]}
